Like-named read-outs stand apart in the source and are kept apart here.
What was measured:
human recombinant BACE1 = human recombinant BACE1 (Homo sapiens (Human), UniProt P56817); test: In vitro enzymatic BACE1 FRET assay; type: biochemical; conditions: read-out: IC50 IP (μM) BACE1 enzyme
Procedure, shortened: (§1)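 Protease purified by Ni-NTA chromatography; start with FRET substrate (50 nM); incubate 1 h; quench with Tris to neutral pH; read fluorescence ex 488 / em 590 nm.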

human recombinant BACE2 = human recombinant BACE2 (Homo sapiens (Human), UniProt Q9Y5Z0); test: In vitro enzymatic BACE2 FRET assay; type: biochemical; conditions: read-out: IC50 IP (μM) BACE2 enzyme
Sequence of human recombinant BACE2 (Q9Y5Z0 63-518): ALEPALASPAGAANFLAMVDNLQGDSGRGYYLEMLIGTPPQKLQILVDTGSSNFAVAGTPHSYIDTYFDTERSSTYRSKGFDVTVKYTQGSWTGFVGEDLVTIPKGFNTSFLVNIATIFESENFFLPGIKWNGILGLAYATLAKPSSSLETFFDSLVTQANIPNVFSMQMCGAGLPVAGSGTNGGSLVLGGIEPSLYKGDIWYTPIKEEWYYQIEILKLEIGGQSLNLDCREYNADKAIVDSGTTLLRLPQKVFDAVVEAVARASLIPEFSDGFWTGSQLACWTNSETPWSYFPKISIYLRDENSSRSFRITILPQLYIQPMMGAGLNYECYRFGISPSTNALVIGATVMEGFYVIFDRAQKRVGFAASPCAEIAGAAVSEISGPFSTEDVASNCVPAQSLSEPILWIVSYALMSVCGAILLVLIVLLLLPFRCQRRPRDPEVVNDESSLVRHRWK
Procedure, shortened: as §1

[1] = test system: Aβ40 in conditioned medium of cells stably expressing Amyloid Precursor Protein (APP); test: In vitro BACE-1 cell-based assay (Aβ40 sandwich ELISA); conditions: read-out: IC50 IP (μM) BACE1 cell
Procedure, shortened: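 APP-expressing cells treated 24 h at 37 °C with compound in 10-point dose response (top 100 μM or 10 μM, 0.1% DMSO final). Secreted Aβ40 in conditioned medium quantified by sandwich ELISA (pAb40 capture, biotinylated 6E10 detection, time-resolved europium fluorescence); IC50 from percent inhibition versus concentration.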

Recombinant Cat D = Recombinant Cat D (Homo sapiens (Human), UniProt P07339); test: In vitro enzymatic Cathepsin D (Cat D) FRET assay; type: biochemical; conditions: read-out: IC50 IP (μM) CatD
Sequence of Recombinant Cat D (P07339 65-412): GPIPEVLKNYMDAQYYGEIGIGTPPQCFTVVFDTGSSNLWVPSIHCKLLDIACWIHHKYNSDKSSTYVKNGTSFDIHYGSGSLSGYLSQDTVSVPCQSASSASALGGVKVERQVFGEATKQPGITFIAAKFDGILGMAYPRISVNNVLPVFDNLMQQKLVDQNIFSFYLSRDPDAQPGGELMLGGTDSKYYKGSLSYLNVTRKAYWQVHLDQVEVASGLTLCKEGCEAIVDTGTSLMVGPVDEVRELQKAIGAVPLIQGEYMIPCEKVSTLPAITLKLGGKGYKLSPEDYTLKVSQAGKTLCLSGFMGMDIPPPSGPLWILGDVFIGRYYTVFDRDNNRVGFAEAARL
Procedure, shortened: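 Recombinant Cat D expressed in CHO cells, assayed in 0.05 M citrate pH 3.5 with 5 mM CHAPS and 10% DMSO final. Reaction started with 20 nM FRET peptide substrate, incubated one hour, then stopped by Tris buffer to neutral pH; fluorescence read at ex 500/em 580 nm.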

Sequence of human recombinant BACE1 (P56817 46-501): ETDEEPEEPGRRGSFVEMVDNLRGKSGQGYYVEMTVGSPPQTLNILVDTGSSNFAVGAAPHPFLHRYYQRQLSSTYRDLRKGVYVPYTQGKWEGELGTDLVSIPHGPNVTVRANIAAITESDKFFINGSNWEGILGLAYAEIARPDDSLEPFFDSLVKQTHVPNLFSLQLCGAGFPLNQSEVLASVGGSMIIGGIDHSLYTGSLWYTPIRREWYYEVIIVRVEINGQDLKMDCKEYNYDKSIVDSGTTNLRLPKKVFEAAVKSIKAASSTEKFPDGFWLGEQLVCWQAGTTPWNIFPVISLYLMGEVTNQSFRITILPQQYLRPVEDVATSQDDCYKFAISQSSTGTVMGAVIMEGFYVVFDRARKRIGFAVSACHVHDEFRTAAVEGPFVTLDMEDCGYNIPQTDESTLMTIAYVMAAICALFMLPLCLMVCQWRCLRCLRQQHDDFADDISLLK

Row | IC50 (human recombinant BACE1; BACE1 FRET enzyme assay) [µM] | IC50 (human recombinant BACE2; BACE2 FRET enzyme assay) [µM] | IC50 ([1]; BACE1 cell-based assay) [µM] | IC50 (Recombinant Cat D; Cathepsin D FRET enzyme assay) [µM] | IC50 (human recombinant BACE1) [µM] | IC50 (human recombinant BACE2) [µM] | IC50 [1] [µM] | IC50 (Recombinant Cat D) [µM] | Structure (SMILES)
1 | 0.0047 | 0.0461 | 0.0217 | 949 | – | – | – | – | C#CCOc1cnc(C(=O)Nc2cc(F)c(F)c([C@@]3(C)N=C(N)S[C@H]4C[C@H]43)c2)c(C)n1 [Example 77, N-(3-((1S,5S,6S)-3-amino-5-methyl-2-thia-4-azabicyclo[4.1.0]hept-3-en-5-yl)-4,5-difluorophenyl)-3-methyl-5-(2-propyn-1-yloxy)-2-pyrazinecarboxamide]
2 | – | – | – | – | 0.0068 | 0.00709 | 0.0522 | 26.4 | NC1=N[C@](CF)(c2cc(NC(=O)c3ccc(Cl)cn3)ccc2F)[C@@H]2[C@H]3CSC[C@]32S1 (mixture of isomers) [Example 752, N-(3-((4S,4aR,7aS)-2-amino-4-(fluoromethyl)-4a,4b,5,7-tetrahydro-4H-thieno[3′,4′:2,3]cyclopropa[1,2-e][1,3]thiazin-4-yl)-4-fluorophenyl)-5-chloropicolinamide and N-(3-((4S,4aS,7aR)-2-amino-4-(fluoromethyl)-4a,4b,5,7-tetrahydro-4H-thieno[3′,4′:2,3]cyclopropa[1,2-e][1,3]thiazin-4-yl)-4-fluorophenyl)-5-chloropicolinamide]
3 | – | – | – | – | 0.00849 | 0.239 | 0.0048 | 1110 | NC1=N[C@](CF)(c2cc(Nc3ncnc4cc(OCc5ncco5)cnc34)ccc2F)[C@@H]2C[C@@H]2S1 [Example 763, N-(3-((1S,5S,6S)-3-amino-5-(fluoromethyl)-2-thia-4-azabicyclo[4.1.0]hept-3-en-5-yl)-4-fluorophenyl)-7-(1,3-oxazol-2-ylmethoxy)pyrido[3,2-d]pyrimidin-4-amine]
4 | – | – | – | – | 0.00162 | 0.0677 | 0.00474 | 2130 | N#CC[C@]12C[C@H]1[C@@](CF)(c1cc(Nc3nccc4nc(OCc5ncco5)cnc34)ccc1F)N=C(N)S2 [Example 721, ((1R,5S,6S)-3-amino-5-(fluoromethyl)-5-(2-fluoro-5-((2-(1,3-oxazol-2-ylmethoxy)pyrido[3,4-b]pyrazin-5-yl)amino)phenyl)-2-thia-4-azabicyclo[4.1.0]hept-3-en-1-yl)acetonitrile]
5 | – | – | – | – | 0.00037 | 0.0307 | 0.0162 | 43.5 | C#CCOc1cnc(C(=O)Nc2cc(F)c(F)c([C@@]3(C)N=C(N)S[C@@]4(COCC)C[C@H]43)c2)cn1 [Example 1046, N-(3-((1S,5S,6S)-3-amino-1-(ethoxymethyl)-5-methyl-2-thia-4-azabicyclo[4.1.0]hept-3-en-5-yl)-4,5-difluorophenyl)-5-(2-propyn-1-yloxy)-2-pyrazinecarboxamide]
6 | – | – | – | – | 0.000889 | 0.0176 | 0.00754 | 146 | C#CCOc1cnc(C(=O)Nc2cc(F)c(F)c([C@@]3(C)N=C(N)S[C@@]4(C(F)F)C[C@@H]34)c2)c(C)n1 [Example 861, N-(3-((1S,5S,6S)-3-amino-1-(difluoromethyl)-5-methyl-2-thia-4-azabicyclo[4.1.0]hept-3-en-5-yl)-4,5-difluorophenyl)-3-methyl-5-(2-propyn-1-yloxy)-2-pyrazinecarboxamide]
7 | – | – | – | – | 0.000879 | 0.192 | 0.00289 | 2560 | COC[C@]12C[C@H]1[C@@](C)(c1cc(NC(=O)c3cnc(OCc4nc(C)no4)cn3)cc(F)c1F)N=C(N)S2 [Example 1014, N-(3-((1S,5S,6S)-3-amino-1-(methoxymethyl)-5-methyl-2-thia-4-azabicyclo[4.1.0]hept-3-en-5-yl)-4,5-difluorophenyl)-5-((3-methyl-1,2,4-oxadiazol-5-yl)methoxy)-2-pyrazinecarboxamide]
8 | – | – | – | – | 0.0236 | 0.342 | 0.259 | 389 | C#C[C@H](C)Oc1cnc(C(=O)Nc2cc(F)c(F)c([C@@]3(C)N=C(N)S[C@@]4(C(F)F)C[C@@H]34)c2)c(C)c1 [Example 647, N-(3-((1S,5S,6S)-3-amino-1-(difluoromethyl)-5-methyl-2-thia-4-azabicyclo[4.1.0]hept-3-en-5-yl)-4,5-difluorophenyl)-3-methyl-5-(((1S)-1-methyl-2-propyn-1-yl)oxy)-2-pyridinecarboxamide]
9 | – | – | – | – | 0.00295 | 0.317 | 0.0442 | > 400 | Cc1noc(COc2cnc3c(Nc4cc(F)c(F)c([C@@]5(C)N=C(N)S[C@@]6(C(F)F)C[C@@H]56)c4)nccc3n2)n1 [Example 887, N-(3-((1S,5S,6S)-3-amino-1-(difluoromethyl)-5-methyl-2-thia-4-azabicyclo[4.1.0]hept-3-en-5-yl)-4,5-difluorophenyl)-2-((3-methyl-1,2,4-oxadiazol-5-yl)methoxy)pyrido[3,4-b]pyrazin-5-amine]
10 | – | – | – | – | 0.000429 | < 0.00203 | 0.000972 | 82 | NC1=N[C@](CF)(c2cc(NC(=O)c3ccc(Cl)cn3)ccc2F)[C@@H]2C[C@]2(/C=C/C(=O)N2CC(F)(F)C2)S1 [Example 772, N-(3-((1R,5S,6S)-3-amino-1-((1E)-3-(3,3-difluoro-1-azetidinyl)-3-oxo-1-propen-1-yl)-5-(fluoromethyl)-2-thia-4-azabicyclo[4.1.0]hept-3-en-5-yl)-4-fluorophenyl)-5-chloro-2-pyridinecarboxamide]
11 | – | – | – | – | 0.000176 | < 0.00203 | 0.0498 | 458 | NC1=N[C@](CF)(c2cc(NC(=O)c3ccc(Cl)cn3)ccc2F)[C@@H]2C[C@]2(/C=C/C(=O)O)S1 [Example 757, (E)-3-((1R,5S,6S)-3-amino-5-(5-(5-chloropicolinamido)-2-fluorophenyl)-5-(fluoromethyl)-2-thia-4-azabicyclo[4.1.0]hept-3-en-1-yl)acrylic acid]
12 | – | – | – | – | 0.035 | 0.184 | 0.038 | 1440 | COc1cnc2c(Nc3cc(F)c(F)c([C@@]4(C)N=C(N)S[C@H]5C[C@H]54)c3)ncnc2c1 [Example 897, N-(3-((1S,5S,6S)-3-amino-5-methyl-2-thia-4-azabicyclo[4.1.0]hept-3-en-5-yl)-4,5-difluorophenyl)-7-methoxypyrido[3,2-d]pyrimidin-4-amine]
13 | – | – | – | – | 0.00107 | 0.0897 | 0.152 | 775 | COC[C@]12C[C@H]1[C@@](C)(c1cc(NC(=O)c3cnc(OCc4cc(C)no4)cn3)cc(F)c1F)N=C(N)S2 [Example 1031, N-(3-((1S,5S,6S)-3-amino-1-(methoxymethyl)-5-methyl-2-thia-4-azabicyclo[4.1.0]hept-3-en-5-yl)-4,5-difluorophenyl)-5-((3-methyl-5-isoxazolyl)methoxy)-2-pyrazinecarboxamide]
14 | – | – | – | – | 0.00105 | < 0.00203 | 0.0031 | 848 | COC1CN(C(=O)/C=C/[C@]23C[C@H]2[C@@](CF)(c2cc(NC(=O)c4ccc(Cl)cn4)ccc2F)N=C(N)S3)C1 [Example 766, N-(3-((1R,5S,6S)-3-amino-5-(fluoromethyl)-1-((E)-3-(3-methoxyazetidin-1-yl)-3-oxoprop-1-en-1-yl)-2-thia-4-azabicyclo[4.1.0]hept-3-en-5-yl)-4-fluorophenyl)-5-chloropicolinamide]
15 | – | – | – | – | 0.000443 | 0.00547 | 0.00528 | 74.9 | C#CCOc1cnc2c(Nc3cc(F)c(F)c([C@@]4(C)N=C(N)S[C@@]5(S(C)(=O)=O)C[C@H]54)c3)nccc2n1 [Example 630, N-(3-((1R,5S,6S)-3-amino-5-methyl-1-(methylsulfonyl)-2-thia-4-azabicyclo[4.1.0]hept-3-en-5-yl)-4,5-difluorophenyl)-2-(2-propyn-1-yloxy)pyrido[3,4-b]pyrazin-5-amine]
16 | – | – | – | – | 0.000768 | 0.0304 | 0.00025 | 1430 | COC[C@]12C[C@H]1[C@@](C)(c1cc(NC(=O)c3cnc(OCc4ncco4)cn3)cc(C)c1F)N=C(N)S2 [Example 1071, N-(3-((1S,5S,6S)-3-amino-1-(methoxymethyl)-5-methyl-2-thia-4-azabicyclo[4.1.0]hept-3-en-5-yl)-4-fluoro-5-methylphenyl)-5-(oxazol-2-ylmethoxy)pyrazine-2-carboxamide]
17 | – | – | – | – | 0.00011 | 0.0149 | 0.000539 | 269 | C#C[C@H](C)Oc1cnc(C(=O)Nc2cc(F)c(F)c([C@@]3(C)N=C(N)S[C@@]4(C(=O)NC)C[C@H]43)c2)cn1 [Example 967, (1S,5S,6S)-3-amino-5-(2,3-difluoro-5-(((5-(((1S)-1-methyl-2-propyn-1-yl)oxy)-2-pyrazinyl)carbonyl)amino)phenyl)-N,5-dimethyl-2-thia-4-azabicyclo[4.1.0]hept-3-ene-1-carboxamide]

— patent US20160046618A1, “Cyclopropyl Fused Thiazin-2-Amine Compounds as Beta-Secretase Inhibitors and Methods of Use” (AMGEN INC., priority 2014, published 2016)
